Data on one compound can be found in paper PMC7797697 (Theranostics, 2021).

Assay [1] deals with MDA-MB-231 cells. Description: Intracellular calcium measurement (Fluo-4-AM). It counts as cell-based, human. To be noted: 100 nM or 200 nM for 24 h. The protocol:
After treatment, the cells were digested and seeded in 96-well black plates (Corning Costar, Cambridge, MA, USA) and cultured for 20 h. For measurement of [Ca^2+]i, the cells were labeled with Fluo-4-AM in serum-free medium for half an hour at room temperature. After washing with Dulbecco's Phosphate Buffered Saline (D-PBS), cells were overlaid in Hank's balanced salt solution (5.4 mM KCl, 1 mM MgCl2, 20 mM hydroxyethyl piperazineethanesulfonic acid (HEPES), 120 mM NaCl, 10 mM glucose, 0.2 mM Ethylenebis(oxyethylenenitrilo)tetraacetic acid (EGTA)). Continuous fluorescence intensity was detected after thrombin was added as a calcium agonist by an automated sampler. Response over baseline was assessed as a relative measure of [Ca^2+]i.
As previously stated, studies have shown that the Ca^2+ signals can modulate cancer progression by regulating migration, proliferation, cell stress, and apoptosis.
Background: A change in cytosolic calcium serves as a functional read-out for many receptors and channels.

Assay [2] relates to MDA-MB-231 cells. The assay is described as follows: High-content epigenetic inhibitor screen, quantification of living cells. To be noted: 72 h. Format: cell-based, human. The source says: HeLa, MCF-7 and MDA-MB-231 cell lines were purchased from the American Type Culture Collection. MCF-10A, T-47D, PANC-1, A549, HCT-15, Caco-2, SMMC-7721, SH-SY5Y, HUVEC and PC-3 cell lines were obtained from the Chinese Academy of Medical Sciences. MEF was isolated from pregnant mice at 14‒16 days of pregnancy. Primary breast cancer cells were isolated from breast cancer patients. All media including Dulbecco Modified Eagle Medium (DMEM), RPMI 1640 Medium and DMEM/Nutrient Mixture F-12 were supplemented with 10% fetal bovine serum (FBS), 100 units/mL penicillin, and […] streptomycin (Gibco, Waltham, MA, USA). Cells were cultured in a humidified incubator equilibrated with 5% CO2 at 37 °C. Cells were treated for 24-72 h in adherent conditions with compounds from an epigenetic small molecule inhibitor library (L1200, Topscience, Shanghai, China).
(§1) Statistical analyses of all data were performed using GraphPad Prism (version 8.0, Graph Pad Software Inc., San Diego, CA, USA). All the data were analyzed by Student's t-test or one-way ANOVA. The Z-Score was chosen to evaluate the results and experimental deviation. Quantitative data are presented as the mean ± SD. The asterisk (*) denotes statistically significant difference (P < 0.05). IC50 was calculated using a four-parameter fit with variable slope in GraphPad Prism.
To identify potential anti-tumor inhibitors, we screened an epigenetic small molecule inhibitor library for anti-tumor activity in breast cancer cells. […] The selection strategy mainly comprised three stages, in which different concentrations (high to low) of inhibitors screened with a high-content analysis instrument were identified using cancer cell lines in a 96-well plate format (Figure 1A). For the first step, we treated cells with a high concentration of compounds to exclude compounds ineffective in killing cancer cells. MDA-MB-231 cells, a human breast cancer cell line, were treated with 167 epigenetic compounds (30 μM each) for 48 h, and then analyzed by high-content analysis, where changes in cell morphology relative to the control (dimethyl sulfoxide, DMSO) would indicate modulation of cancer cells by compound treatment. […] At the second step, we treated the cells with the 60 compounds at a median concentration (3 μM) for 72 h to screen for inhibitors that can kill cancer cells with high efficiency.

The subject of assay [3] is Gαq, PLCβ3, PMCA1 and PMCA4b in MDA-MB-231 cells. The assay is described as follows: Expression of calcium influx and efflux markers (Western blot, RT-qPCR). It counts as cell-based, human. The protocol:
Reverse transcription was performed using the RevertAid First Strand cDNA Synthesis Kit ([…]) according to the manufacturer's instructions. The primers for the detection of target mRNA are shown in Table S2. β-actin was used as an internal reference. The relative expression of target genes was calculated by the 2^-ΔΔCt method.

Assay [4] deals with MDA-MB-231 xenografts. Description: MDA-MB-231 xenograft anti-tumor activity. To be noted: i.v., 50 mg/kg. Format: in vivo, nude mice. As for the experimental part: MDA-MB-231 (5 × 10^6 cells) were inoculated into the left abdominal mammary fat pad of 6-week-old female nude mice, and tumor growth was monitored. […] After four weeks of treatment, all mice were sacrificed according to ethical guidelines. Tumors were excised and analyzed. Tumor volume was measured using a Vernier caliper and calculated according to the following formula: π/6 × length × width^2. All animal handling and procedures were approved by the Capital Medical University Institutional Animal Care. Tumor and adjacent tissues were rapidly fixed in 4% paraformaldehyde (Sigma-Aldrich) for at least 24 h and embedded in paraffin for microscopic examination. From the prepared paraffin blocks, 5-μm thick sections were cut and stained with hematoxylin and eosin (H&E) for light microscopic observation. Sections were processed as per standard protocols using 3,3'-diaminobenzidine (DAB) staining. All human and mouse tissues were collected according to protocols approved by the Ethics Committee of Capital Medical University, and informed consent was obtained from all patients.

Assay [5] has as its system T-47D. The assay is described as follows: CCK8 assay IC50. It counts as cell-based. To be noted: Homo sapiens, T47D, breast cancer, 72 h. As for the experimental part:
(§2) Cell viability was then detected using a CCK8 assay (MedChemExpress, USA) according to the manufacturer's instructions.
as §1
A general note: Tetrazolium assays rely on reduction of a dye to a coloured formazan, in cell work by metabolically active cells.

For assay [6], the system named is A549. The assay is described as follows: CCK8 assay IC50. It counts as cell-based. To be noted: Homo sapiens, A549, lung cancer, 72 h. As for the experimental part:
as §2, §1

Assay [7] deals with SH-SY5Y. Description: CCK8 assay IC50. Format: cell-based. To be noted: Homo sapiens, neuroblastoma, 72 h. As for the experimental part:
as §2, §1

The test system of assay [8] is HeLa. The assay is described as follows: CCK8 assay IC50. Format: cell-based. To be noted: Homo sapiens, cervical cancer, 72 h. The protocol:
as §2, §1

In assay [9] the test system is HCT-15. The assay is described as follows: CCK8 assay IC50. To be noted: Homo sapiens, HCT-15, colon cancer, 72 h. It counts as cell-based. The protocol: as §2, §1
Assay [10] relates to PC-3. Description: CCK8 assay IC50. It counts as cell-based. To be noted: Homo sapiens, PC-3, prostatic cancer, 72 h. The protocol:
as §2, §1

Assay [11] concerns MDA-MB-231 and primary breast tumor cells. Description: EdU incorporation assay. It counts as cell-based, human. To be noted: compared to DMSO treatment. The source says: After that, DNA proliferation was detected using an EdU assay kit according to the manufacturer's instructions (RiboBio, Guangzhou, China).

pIC50: −log10 of the molar value.

The term pIC50 denotes the negative decadic logarithm of the IC50, by convention in mol/L. High values mean a small IC50, low ones a large IC50. Take `CN(C)Cc1c(C(=O)NCCOc2ccc(C(=O)NO)cc2)oc2ccccc12` [PCI-24781]: in [1], the “influx of intracellular calcium ions induced by thrombin, ionomycin, and carbachol” value is given as “completely inhibited”. The cell death in [2] (0.15 μM) is recorded as ~ 20%. In addition, the “effect on cell survival” value in assay [2] (3 μM) is “discernible effects on cell survival”. Also, the “expression levels of PMCA1 and PMCA4b” value in [3] (MDA-MB-231, RT-qPCR) was “not affected”. Moreover, in [3] (MDA-MB-231, Western blot and RT-qPCR), the “expression levels of Gαq and PLCβ3” value is recorded as “significantly decreased”. Besides, in assay [4], the “Ki-67 staining of tumor tissues” value is on record as “inhibited tumor proliferation”. The compound further had a tumor growth inhibition in [4] (every other day for four weeks, compared to control group, P < 0.0001) of 74.6%. Further, the “RGS2 IHC staining in tumor tissues” value in [4] (versus control group) is “more abundant and more intensely stained”. For the same compound, the pIC50 is 5.58 in assay [5]; 5.94 in assay [6]; 5.22 in [7]; 5.74 in [8]; 4.48 in assay [9]; 5.91 in assay [10]. Moreover, the “cell proliferation (EdU incorporation)” value in assay [11] is “decreased proliferation”.
